Experimental data published in article PMC11871066, “Structure-based discovery of hydrocarbon-stapled paxillin peptides that block FAK scaffolding in cancer” (Nature Communications, 2025).
Like-named read-outs stand apart in the source and are kept apart here. Bridge positions count the residues as written; N and C are the ends. Square brackets hold non-standard residues; d marks the D form. Peptide text beside a SMILES is read from it. * marks the point of attachment. Myristoyl = CCCCCCCCCCCCCC(=O)*; R8 = C=CCCCCCC[C@@](C)(N)C(=O)O; S5 = C=CCCC[C@](C)(N)C(=O)O

Key:
Assay type in all cases: cell-based, human
Hep-G2 cells = experiment: cells; conditions: 96 h
Experimental: (§1) Cells were seeded at 1000 cells per well in white-walled, clear bottom 96-well plates and allowed to adhere in the incubator for 24 h. […] Treatment doses were created in a 12-or 10-point, twofold serial dilution, starting at 200 μM. After 24 h of treatment, 10% FBS was spiked back into each well and the plate returned to 37 °C […]. After 96 h of drug treatment, the Promega 2D CellTiter-Glo reagent was added to each well at a 1:2 ratio of reagent to treatment media. […] This assay was performed a minimum of 3 (n = 3) times for each cell line, with each run containing a minimum of 3 technical replicates per run. IC50 curves were generated using GraphPad Prism (version 10.3.1), reporting the mean % viability relative to DMSO ± SD.

LX-2 cells = experiment: cells; conditions: 96 h
Experimental: as §1

NHEM cells = experiment: cells; conditions: 96 h
Experimental: as §1

ONDA7 cells = experiment: cells; conditions: 96 h
Experimental: as §1

SK-MEL-147 cells [1] = experiment: cells; conditions: 96 h
Experimental: as §1

WM88 cells = experiment: cells; conditions: 96 h
Experimental: as §1

SK-MEL-147 cells [2] = experiment: RealTime-Glo Annexin V apoptosis assay; conditions: for induction of apoptosis, time-course: every 24 h over 96 h
Experimental: SK-MEL-147 cells were seeded at 1000 cells/well in 384-well white-walled, clear-bottom plates (Corning). Cells were allowed to adhere overnight. Serial twofold dilutions of drugs were prepared starting at 200 μM. Immediately after adding the drug treatments, 2X RealTime-Glo™ Annexin V Apoptosis detection reagent (Promega) was added. Replicates were also included for the following controls: “no-cell” (negative), vehicle-only controls (negative), and cisplatin (5 μM, positive). […] Dose-response curves and EC50 curves were obtained using GraphPad Prism (version 10.3.1), reporting mean luminescence relative to DMSO ± SD. A minimum of 5 independent biological runs (n = 5) were performed per treatment group. […]
manner via Annexin V apopt osi s ti me -course study. SK -MEL- 147 cells treated with ( a) 2012, (b) 2 0 20, and (c) defactinib are evaluated for apoptosis using RealTime- Glo system for Annexin V binding. EC50 curves representing data obtained every 24 hours, over the course of 96 hours total. EC50 cur ves f it us i ng GraphPad Prism reporting mean ± SD of (a) 7 biological replicates (n=7); (b) 5 biological replicates (n =5); and (c) 5 biological replicates (n =5). Source data are provided as Source Data files.

SK-MEL-147 cells [3] = experiment: Transwell invasion assay
Experimental: SK-MEL-147 cells were seeded at 400,000 cells/well in six-well plates and allowed to adhere in the incubator overnight. Cells were pretreated with drugs ranging from 200–0.01 μM, and incubated for 48 h. Subsequently, 8.0 μm PET membrane cell culture inserts (Falcon) were coated with 40 μL of 0.3 mg/mL Matrigel (Corning) diluted in serum-free media and incubated at 37 °C/5% CO2 for 5 h to allow the solution to gel. Unbound Matrigel was removed from the inserts, and membranes were rehydrated with serum-containing media for an additional hour. Treated cells were then trypsinized, collected by centrifugation, washed with DPBS, and resuspended in serum-free media. About 50,000 cells per treatment group were seeded into upper chambers with additional serum-free media. 10% FBS-containing media was placed into bottom chambers as a chemoattractant. After 24 h, inserts were then stained with crystal violet (Sigma-Aldrich) and washed with DPBS. Using an ECHO Revolve microscope, bright field images of 6 fields of view for each insert were taken at 10x magnification. The number of invaded cells in each image was quantified using ImageJ (version 1.52a). Bar graphs, dose-response curves, and IC50 values were established using GraphPad Prism (version 10.3.1), reporting the mean number of invaded cells relative to DMSO ± SD.
Transwell invasion assay. Representative brightfield images of invaded SK -MEL- 147 cells on transwell inserts at 10X magnification following peptide treatment. Images show invaded cells after treatment with various concentrations of 2020 (top panel), 2012 (middle panel), and defactinib (bottom panel), in addition to DMSO vehicle-control (left, top panel) and ad- FRNK positive control (left, bottom panel). Bar graphs reveal m ean number of invaded cells ± SD and calculated IC50 values across all dos e s of 2020 (left graph, n=2), 2012 (middle graph, n=6), and defactinib (right graph, n=4 ). All values for ‘n’ represent independent biological replicates. One -way ANOVA analyses and Dunnet’s multiple comparison tests were performed

[4] = system: FAK/paxillin focal adhesions in SK-MEL-147 cells; experiment: cells; conditions: 48 h
Experimental: SK-MEL-147 cells were collected and seeded into the inner 60 wells of 96-well, black-walled plates (Agilent, 204626-100) at 1000 cells per well in 100 uL of complete DMEM overnight in a 37 °C incubator with 5% CO2. The next day, the serum-containing media was removed from each well and cells were washed with PBS before treating the cells in serum-free DMEM and 0.5% DMSO for 48 h. After treatment, cells were pre-fixed with 4% paraformaldehyde diluted in 1x PBS being added directly to the culture medium for 2 min. Pre-fixation media was then removed, and 4% paraformaldehyde diluted in 1X PBS was added to each well for 3 min at room temperature. Fixative was then removed and neutralized twice with 100 mM Tris Buffered Saline in MilliQ water and then washed once with 0.1% Tween-20 in PBS. Cells were permeabilized with 0.5% Triton-X 100 in PBS for 5 min at room temperature, then the permeabilization buffer was removed, and cells were washed twice with 0.1% Tween-20 in PBS. Cells were then blocked with 10% Goat Serum in PBS for 1 h at room temperature. […] Antibody stain was then removed, and cells were washed twice with 0.1% Tween-20 in PBS. […] Cells were then washed twice with 0.1% Tween-20 in PBS and DAPI stain (Sigma-Aldrich, D9542-5MG, 1 mg/mL) diluted 1:40,000 in PBS in the dark for 5 min at room temperature. DAPI stain was then removed, and cells were washed twice with 0.1% Tween-20 in PBS, then twice with PBS for 5 min per wash on an orbital shaker. Plates were then imaged on the BioTek Cytation C10 Confocal Imaging Reader. Three fields of view were taken per well per run and analyzed in the accompanying Agilent BioTek Gen5 Software (version 3.16). The following software parameters were used to quantify FAK-containing, paxillin-containing, and FAK/paxillin-containing focal adhesions: area (0.25–33); circularity (<0.602); FAK signal to noise ratio (>2.55), FAK integrated density (SKMEL147 > 4200; WM88 >9400), paxillin signal to noise ratio (>4.5), paxillin integrated density (>8000), presence of F-actin (phalloidin) staining; and limited proximity to DAPI staining (integrated density <4000).

[5] = Homo sapiens, average of n >= 3, read-out: cell viability IC50

CCCCCCCCCCCCCC(=O)N[C@@H](CC(N)=O)C(=O)N[C@@H](CC(C)C)C(=O)N[C@]1(C)CCCCCCC=CCCC[C@@](C)(C(=O)N[C@@H](CCC(=O)O)C(=O)N[C@@H](CC(C)C)C(=O)N[C@@H](CC(N)=O)C(N)=O)NC(=O)[C@H](CC(C)C)NC(=O)[C@H](CC(C)C)NC(=O)[C@H](CCCNC(=N)N)NC(=O)[C@H](CC(=O)O)NC(=O)[C@H](CC(C)C)NC(=O)[C@H](CCC(=O)O)NC1=O [compound 2012]
IC50 (Hep-G2 cells): > 200 µM
IC50 (LX-2 cells): > 200 µM
IC50 (NHEM cells): > 200 µM
IC50 (ONDA7 cells): 9.79 µM
IC50 (SK-MEL-147 cells [1]): 2.36 µM
IC50 (WM88 cells): 4.42 µM
EC50 (SK-MEL-147 cells [2]; 96 h): 8.3 µM
IC50 (SK-MEL-147 cells [3]; 48 h treatment): 1.8 µM

CNC(=O)c1ccc(Nc2ncc(C(F)(F)F)c(NCc3nccnc3N(C)S(C)(=O)=O)n2)cc1 [defactinib]
IC50 ([4]; Homo sapiens, SK-MEL-147, n = 3, read-out: IC50, reduction of FAK-containing focal adhesions): 11.1 µM
IC50 ([4]; Homo sapiens, SK-MEL-147, n = 3, read-out: IC50, reduction of dual FAK-paxillin containing focal adhesions): 11.2 µM
IC50 ([4]; Homo sapiens, SK-MEL-147, n = 3, read-out: IC50, reduction of paxillin-containing focal adhesions): 18.7 µM
IC50 (Hep-G2 cells; Homo sapiens, HepG2, average of n >= 3, read-out: cell viability IC50): 67 µM
IC50 (LX-2 cells; Homo sapiens, LX-2, average of n >= 3, read-out: cell viability IC50): 2.19 µM
IC50 (NHEM cells; [5]): > 200 µM
IC50 (ONDA7 cells; [5]): 18.9 µM
IC50 (SK-MEL-147 cells [1]; Homo sapiens, SK-MEL-147, average of n >= 3, read-out: cell viability IC50): 2.84 µM
IC50 (WM88 cells; [5]): 21.2 µM
Annexin V apoptosis EC50 (SK-MEL-147 cells [2]; 96 h): did not exhibit a dose-dependent effect
induction of apoptosis, time-course (SK-MEL-147 cells [2]): no effect at any timepoint
percentage of invaded cells (SK-MEL-147 cells [3]; 2.5 µM): 0%

CCCCCCCCCCCCCC(=O)N[C@@H](CC(N)=O)C(=O)N[C@@H](CC(C)C)C(=O)N[C@]1(C)CCCCCCC=CCCC[C@@](C)(C(=O)N[C@@H](CCC(=O)O)C(=O)N[C@@H](CCC(=O)O)C(=O)N[C@@H](CC(N)=O)C(N)=O)NC(=O)[C@H](CC(C)C)NC(=O)[C@H](CC(C)C)NC(=O)[C@H](CCCNC(=N)N)NC(=O)[C@H](CC(=O)O)NC(=O)[C@H](CCC(=O)O)NC(=O)[C@H](CCC(=O)O)NC1=O [compound 2020] (Myristoyl-NL[R8]EEDRLL[S5]EEN-NH2; staple 3-10)
IC50 [4]: > 25 µM
IC50 (Hep-G2 cells): > 200 µM
IC50 (LX-2 cells): > 200 µM
IC50 (NHEM cells): > 200 µM
IC50 (ONDA7 cells): > 200 µM
IC50 (SK-MEL-147 cells [1]): > 200 µM
IC50 (WM88 cells): > 200 µM
induction of apoptosis, time-course (SK-MEL-147 cells [2]): no effect at any timepoint
invasion IC50 (SK-MEL-147 cells [3]; 48 h treatment): no effect
